According to patent US6693208B2, “Compounds and compositions for delivering active agents” (Emisphere Technologies, Inc., priority 1999, dated 2004):

Experiment: Heparin oral/intracolonic delivery in rats, heparin activity by APTT
Format: in vivo, Sprague-Dawley rats
Method: Oral gavage (PO) and/or intracolonic (IC) dosing solutions containing a delivery agent compound and heparin sodium USP in 25% aqueous propylene glycol were prepared. Either the sodium salt of the compound was used or the free acid was converted to the sodium salt with one equivalent of sodium hydroxide. Typically, delivery agent compound and heparin (about 166-182 IU/mg) were mixed by vortex as dry powders. This dry mixture was dissolved in 25% v/v aqueous propylene glycol, vortexed and placed in a sonicator (about 37° C.). The pH was adjusted to about 7 (6.5 to 8.5) with aqueous NaOH (2N). The dosing solution was sonicated to produce a clear solution. The final volume was adjusted to 3.0 mL. The final delivery agent compound dose, heparin dose and volume dose amounts are listed below in Table 2.
The typical dosing and sampling protocols were as follows. Male Sprague-Dawley rats weighing between 275-350 g were fasted for 24 hours and were anesthetized with ketamine hydrochloride (88 mg/kg) intramuscularly immediately prior to dosing. A dosing group of five rats was administered one of the dosing solutions. For oral gavage (PO) dosing, an 11 cm Rusch 8 French catheter was adapted to a 1 mL syringe with a pipette tip. The syringe was filled with dosing solution by drawing the solution through the catheter, which was then wiped dry. The catheter was placed down the esophagus leaving 1 cm of tubing past the rat's incisors. Solution was administered by pressing the syringe plunger. For intracolonic (IC) dosing, a 7.5 cm 8 fr Rusch catheter was adapted to a 1 ml syringe with a pipette tip. The dosing catheter was inserted into the colon through the anus. until the tube was no longer visible. The dosing solution was expressed slowly into the colon.
Citrated blood samples were collected by cardiac puncture following the administration of ketamine (88 mg/kg), typically at time—0.25, 0.5, 1.0 and 1.5 hours. Heparin activity was determined by utilizing the activated partial thromboplastin time (APTT) according to the method of Henry, J. B., Clinical Diagnosis and Management by Laboratory Methods, Philadelphia, Pa., W. B. Saunders (1979). Previous studied indicated baseline values of about 20 sec. Results from the five rats in each group were averaged for each time point. The maximum is reported below in Table 2.

[1] = IC, 1 ml/kg, compound 50 mg/kg, heparin 25 mg/kg
[2] = PO, 3 ml/kg, compound 200 mg/kg, heparin 100 mg/kg
[3] = IC, 1 ml/kg, compound 50 mg/kg, heparin 100 mg/kg

| Structure (SMILES) | Mean Peak APTT (sec) ± SD) [1] [s] | Mean Peak APTT (sec) ± SD) [2] [s] | Mean Peak APTT (sec) ± SD) [3] [s] |
| --- | --- | --- | --- |
| COc1ccc(O)c(C(=O)NCCCCCCCC(=O)O)c1 [Compound 1] | 102.3 ± 130.4 | – | – |
| COc1ccccc1C(=O)NCCCCCCCCCCC(=O)O [Compound 3] | 44.2 ± 16.2 | – | – |
| O=C(O)CCCCCCCCCNC(=O)c1cc(Cl)cc(Cl)c1O [Compound 4, N-(3,5-dichlorosalicyloyl)-10-aminodecanoic acid] | 94 ± 47.5 | – | – |
| O=C([O-])CCc1ccc(NC(=O)c2ccccc2O)c(F)c1.[Na+] [Compound 5, sodium 3-(4-salicyloylamino-3-fluorophenyl)propionate] | 89.9 ± 68.6 | 32.6 ± 5 | – |
| Cc1cc(F)cc(C(=O)Nc2ccc(CCC(=O)O)cc2)c1O [Compound 6] | 90.6 ± 50.9 | 33.8 ± 18.7 | – |
| O=CNc1ccccc1C(=O)Nc1ccc(CCC(=O)O)cc1 [Compound 7] | 28.6 ± 6.1 | – | – |
| COc1ccc(O)c(C(=O)Nc2ccc(CCC(=O)O)cc2)c1 [Compound 8] | – | – | 266.4 ± 165.7 |
| COc1ccc(O)c(C(=O)Nc2ccc(CCCC(=O)O)cc2)c1 [Compound 9] | – | – | 192.8 ± 50.9 |
